Reference: ChEMBL document CHEMBL1201862, “PubChem BioAssay data set” (2004)
Activity calls are given as the source filed them.

Tests used:
[1] = P. falciparum Dd2 growth inhibitors, dose response, SYBR Green, cherry-picked samples (AID 1159567); assay type: functional, cell-based
[2] = P. falciparum Dd2 growth inhibitors, dose response, SYBR Green, dry powder samples (AID 1159566); assay type: functional, cell-based;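 note: potency for growth inhibition with lower SYBR green DNA signal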
[3] = HepG2 cell cytotoxicity, dose response, cytotoxicity control, plate reader, dry powder samples (AID 1159569); assay type: functional, cell-based;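 note: inhibitor potency with signal falling toward the positive control level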
[4] = P. falciparum ATP4 D1247Y mutant growth inhibitors, dose response, NITD609-resistant line, SYBR Green, dry powder (AID 1159571); assay type: functional, cell-based;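 note: parasites synchronized at ring stage by sorbitol before testing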
[5] = P. falciparum 3D7-ScDHODH growth inhibitors, dose response, SYBR Green, dry powder samples (AID 1159570); assay type: functional, cell-based;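 note: parasite growth measured after 72 hours of compound exposure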
[6] = Glucagon-like peptide 1 release potency, NCI-H716 cell line, dose-response, half-maximal inhibitory concentration (AID 1117344); assay type: functional, cell-based
[7] = half-maximal inhibitory concentration for glucagon-like peptide-1 release, STC-1 cell line, dose-response (AID 1117345); assay type: functional, cell-based
[8] = Dose-response inhibition of insulin secretion in a rat insulinoma line at 5 mM glucose (AID 1117331); assay type: functional, cell-based; settings: INS-1E
[9] = Late stage results for the probe development effort to identify inhibitors of Plasmodium falciparum gametocytes: Luminescence-based cell-based high throughput dose response assay to identify inhibitors of viability of late stage Plasmodium falciparum gametocytes.; assay type: functional
[10] = MITF Orthogonal Assay: SK-MEL-5 CTG Assay Measured in Cell-Based System Using Plate Reader - 2084-02_Inhibitor_Dose_DryPowder_Activity_Set5.; assay type: functional
[11] = A375 melanoma cell viability loss, dose response, counter-screen for MITF inhibitor project, CellTiter-Glo luminescence, dry powder, set 4 (AID 624364); assay type: functional, cell-based; settings: A-375;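 note: A375 melanoma cells are MITF independent so this is a counter screen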
[12] = SK-MEL-5 parental cell viability reduction, dose response, orthogonal assay for MITF inhibitor project, CellTiter-Glo luminescence, dry powder, set 8 (AID 651586); assay type: functional, cell-based
[13] = MITF Measured in Cell-Based System Using Plate Reader - 2084-01_Inhibitor_Dose_DryPowder_Activity_Set7.; assay type: functional
[14] = TRPM1 promoter luciferase reporter signal decrease, dose response, MITF inhibitor project, cell-based, SK-MEL-5, dry powder, set 9 (AID 651588); assay type: functional
[15] = MITF Measured in Cell-Based System Using Plate Reader - 2084-01_Inhibitor_Dose_DryPowder_Activity_Set6.; assay type: functional
[16] = non-specific cell cytotoxicity, dose response, cytotoxicity control for PAX8 inhibitor project, plate reader, dry powder samples (AID 743021); assay type: functional, cell-based
[17] = IGROV1 ovarian cancer cell cytotoxicity, dose response, PAX8 inhibitor project, plate reader, dry powder samples (AID 743043); assay type: functional, cell-based; settings: IGROV-1
Paired box protein Pax-8 = Paired box protein Pax-8 (Homo sapiens, UniProt Q06710); test: inhibitors of PAX8-driven TPO luciferase reporter, dose response, RMG-I cells, cherry-pick (AID 687027); assay type: functional, cell-based;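 note: luciferase reporter driven by Pax8 target thyroperoxidase promoter measured by SteadyGlo luminescence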
[18] = A2780 ovarian cancer cell cytotoxicity, dose response, cytotoxicity control, plate reader, dry powder samples (AID 743046); assay type: functional, cell-based
[19] = NIH:OVCAR-3 ovarian cancer cell cytotoxicity, dose response, PAX8 inhibitor project, plate reader, dry powder samples (AID 743044); assay type: functional, cell-based
[20] = cytotoxicity in OVCAR8 ovarian cancer cells, dose response, PAX8 project, cell-based, plate reader, dry powder samples (AID 743197); assay type: functional; settings: OVCAR-8
[21] = target: RNA-editing ligase 1, mitochondrial (Trypanosoma brucei brucei, UniProt P86926); test: TbREL1 ligase inhibitors, dose response, biochemical, fluorescence, Trypanosoma brucei (AID 1117295); assay type: functional
[22] = cytotoxicity in KRAS-transformed pancreatic duct cells, primary screen, cell-based, fluorescence, HTS (AID 431); assay type: functional; settings: Homo sapiens;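 note: cell line used: HPDE-C7K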
[23] = cytotoxicity in HPDE-C7 cells, cell-based, fluorescence, HTS (AID 430); assay type: functional; settings: Homo sapiens
[24] = Artemis endonuclease inhibitor potency, dose response, biochemical, fluorescence intensity (AID 720701); assay type: functional;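 note: Artemis endonuclease enzyme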
[25] = HepG2 cell cytotoxicity, dose response, cytotoxicity control, cherry-picked samples (AID 1159577); assay type: functional, cell-based

Sequence of RNA-editing ligase 1, mitochondrial (P86926 whole entry): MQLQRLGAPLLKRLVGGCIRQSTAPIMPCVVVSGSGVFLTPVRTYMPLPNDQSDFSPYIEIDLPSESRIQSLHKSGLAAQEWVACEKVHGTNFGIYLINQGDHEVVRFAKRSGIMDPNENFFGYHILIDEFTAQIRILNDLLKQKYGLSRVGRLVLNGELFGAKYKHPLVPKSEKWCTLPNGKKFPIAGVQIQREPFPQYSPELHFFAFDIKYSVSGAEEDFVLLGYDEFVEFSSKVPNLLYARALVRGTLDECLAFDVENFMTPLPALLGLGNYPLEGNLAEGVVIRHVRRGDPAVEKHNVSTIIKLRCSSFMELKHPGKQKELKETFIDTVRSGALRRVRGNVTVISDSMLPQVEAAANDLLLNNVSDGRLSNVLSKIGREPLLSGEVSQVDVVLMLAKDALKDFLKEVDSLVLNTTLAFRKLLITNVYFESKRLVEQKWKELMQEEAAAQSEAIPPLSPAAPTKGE
Sequence of Paired box protein Pax-8 (Q06710 whole entry): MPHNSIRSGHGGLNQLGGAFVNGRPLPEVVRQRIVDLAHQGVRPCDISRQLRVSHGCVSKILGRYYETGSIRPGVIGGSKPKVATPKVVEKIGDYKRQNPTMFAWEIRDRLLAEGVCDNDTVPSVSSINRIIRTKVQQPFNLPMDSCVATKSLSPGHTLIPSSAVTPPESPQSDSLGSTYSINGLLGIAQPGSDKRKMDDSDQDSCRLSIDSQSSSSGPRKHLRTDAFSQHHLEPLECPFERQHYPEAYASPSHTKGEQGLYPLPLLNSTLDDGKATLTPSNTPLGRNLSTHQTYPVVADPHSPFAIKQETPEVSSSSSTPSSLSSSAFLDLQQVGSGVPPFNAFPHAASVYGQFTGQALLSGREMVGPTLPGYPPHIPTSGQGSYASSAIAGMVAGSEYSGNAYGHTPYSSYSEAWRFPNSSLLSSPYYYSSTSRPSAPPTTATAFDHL

With `C[C@@H]1CN([C@H](C)CO)S(=O)(=O)c2ccc(-c3ccncc3)cc2O[C@H]1CN(C)Cc1ccc(Oc2ccccc2)cc1` the AC50 [1] was 1.51 µM (active), the AC50 [2] was 0.583 µM (active) and the AC50 [3] was 50 µM (active). For the same molecule, the AC50 [4] was 0.841 µM (active) and the AC50 [5] was 0.573 µM (active).
In the case of `Cn1cc([S+](C)[O-])c(=O)c2ccc(F)cc21` (configuration not stated) [FLOSEQUINAN], the IC50 [6] is reported as > 40 µM (inactive), the IC50 [7] is reported as > 40 µM (inactive) and the IC50 [8] is reported as > 33.3 µM (inactive).
In the case of `Cc1ccc(-c2nn(-c3ccccc3)cc2C(=O)Nc2nccs2)cc1`, the IC50 [9] is reported as > 74.4 µM (inactive).
For `NC1=C(NS(=O)(=O)c2ccc(Br)s2)C(=O)c2ccccc2C1=O`, the AC50 [10] was > 70 µM (inactive), the AC50 [11] was > 70 µM (inactive) and the AC50 [12] was > 70 µM (inactive). For the same molecule, the AC50 [13] was 65.8 µM (active), the AC50 [14] was > 70 µM (inactive) and the AC50 [15] was > 70 µM (inactive).
For `C[C@H](CO)N1C[C@H](C)[C@H](CN(C)Cc2ccc(C(F)(F)F)cc2)OCCCC[C@H](C)Oc2ccc(NC(=O)Cc3ccccc3)cc2C1=O`, the AC50 [16] was 69.3 µM (active), the AC50 [17] was 25.6 µM (active) and the AC50 (Paired box protein Pax-8) was 6.42 µM (active). The AC50 [18] was 49 µM (active), the AC50 [19] was 35.4 µM (active) and the AC50 [20] was 67 µM (active).
With `Nc1c(C(=O)NC2CCCC2)c2nc3ccccc3nc2n1CC1CCCO1` (configuration not stated) the IC50 [21] was 21.1 µM (inactive), the EC50 [22] was 13.2 µM (active) and the EC50 [23] was 14.4 µM (active). For the same molecule, the IC50 [24] was > 20 µM (inactive).
For `Cc1cccc(S(=O)(=O)N2CCCCN3[C@@H](CO)[C@@H](c4ccc(-c5ccccc5)cc4)[C@@H]3C2)c1`, the AC50 [1] was 1.26 µM (active) and the AC50 [25] was 19.8 µM (active).
